This is an account of results in US20240150290A1, “HETEROCYCLIC P2Y14 RECEPTOR ANTAGONISTS” (priority 2021, published 2024).

Data set [1] in a line: Aqueous solubility, pION method.
Data set [2] is described as follows: HPLC-based lipophilicity (Log D7.4). The conditions noted are these: for chromatographic logD: pH 7.4.
Another data set addresses T1, hP2Y14R (Homo sapiens, UniProt Q15391).
T1 construct: expressed in transfected cells; host or cells: CHO cells
T1 sequence (Q15391 1-338): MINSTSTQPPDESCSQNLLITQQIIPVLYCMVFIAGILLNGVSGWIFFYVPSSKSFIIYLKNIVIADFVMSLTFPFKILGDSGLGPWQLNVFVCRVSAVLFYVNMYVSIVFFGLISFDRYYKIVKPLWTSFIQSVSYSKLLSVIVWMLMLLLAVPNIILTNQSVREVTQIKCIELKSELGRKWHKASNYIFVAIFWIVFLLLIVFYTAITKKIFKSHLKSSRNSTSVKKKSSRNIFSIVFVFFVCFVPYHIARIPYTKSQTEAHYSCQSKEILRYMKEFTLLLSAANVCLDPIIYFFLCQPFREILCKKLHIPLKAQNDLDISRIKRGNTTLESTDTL
Put plainly: Inhibition of fluorescent antagonist binding in whole hP2Y14R-expressing CHO cells (flow cytometry).

[3] abbreviates: Table 1, fluorescent antagonist 2, hP2Y14R-CHO cells, 3-4 determinations, read-out: IC50, hP2Y14R (μM, mean ± SEM).
The mark [4] stands for this setting: Table 6, fluorescent hP2Y14R antagonist (3), read-out: hP2Y14R, IC50.
Setting [5] is: Example 5 table, whole cell fluorescent binding assay, read-out: IC50.

The structures appear in SMILES notation. Like-named read-outs stand apart in the source and are kept apart here.

In the case of `O=C(O)c1cc(-c2ccc(C3CC4CCC3CN4)cc2)c2ccc(-c3ccc(C(F)(F)F)cc3)cc2c1` (racemic) [Compound 126], in data set [1], the “Solubility (ug/mL) pH 4” value amounted to 0.80 ± 0.05 ug/mL and the “Solubility (ug/mL) pH 7.4” value came out at 0.49 ± 0.06 ug/mL. Moreover, the chromatographic logD (in general, a lipophilicity value derived from retention on a column) in data set [2] turned out to be 1.74 ± 0.02. With `Nc1ccc(-c2cc(C(=O)O)cc(-n3cc(-c4ccc(C(F)(F)F)cc4)nn3)c2)cc1` [Compound 7, 4′-Amino-5-(4-(4-(trifluoromethyl)phenyl)-1H-1,2,3-triazol-1-yl)-[1,1′-biphenyl]-3-carboxylic acid], the IC50 (as a rule, the concentration needed to halve the response being measured) at hP2Y14R (setting [3]) stood at 1.48 ± 0.16 µM. Still for that read-out and setting: the same measure for `CC(C)(C)OC(=O)N1CCC(C(=O)Nc2ccc(-c3cc(C(=O)O)cc(-n4cc(-c5ccc(C(F)(F)F)cc5)nn4)c3)cc2)CC1` [Compound 12, 4′-(1-(tert-Butoxycarbonyl)piperidine-4-carboxamido)-5-(4-(4-(trifluoromethyl)phenyl)-1H-1,2,3-triazol-1-yl)-[1,1′-biphenyl]-3-carboxylic acid]: 22.5 ± 3.7 µM; for `NCC1(c2ccc(-c3cc(C(=O)O)cc(-n4cc(-c5ccc(C(F)(F)F)cc5)nn4)c3)cc2)CC1` [Compound 23, 4′-(1-(Aminomethyl)cyclopropyl)-5-(4-(4-(trifluoromethyl)phenyl)-1H-1,2,3-triazol-1-yl)-[1,1′-biphenyl]-3-carboxylic acid]: 8.91 ± 0.75 µM. In the case of `O=C(O)c1cc(-c2ccc([C@H]3C[C@@H]4CN[C@H]3C4)cc2)c2ccc(-c3ccc(C(F)(F)F)cc3)cc2c1` [Compound 117, 4-(4-((1S,4S,6R)-2-Azabicyclo[2.2.1]heptan-6-yl)phenyl)-7-(4-(trifluoromethyl)phenyl)-2-naphthoic acid], the IC50 at hP2Y14R (setting [4]) worked out at 0.0259 ± 0.0076 µM. The compound further gave a chromatographic logD in data set [2] of 2.11 ± 0.06. As for `O=C(O)c1cc(-c2ccc(C3CNC3)cc2)c2ccc(-c3ccc(C(F)(F)F)cc3)cc2c1` [Compound 405, 4-(4-(Azetidin-3-yl)phenyl)-7-(4-(trifluoromethyl)phenyl)-2-naphthoic acid], the IC50 on hP2Y14R (setting [5]) worked out at 0.0659 ± 0.0193 µM. In the case of `O=C(O)c1cc(-c2ccc([C@@]3(O)C[C@H]4CC[C@@H]3CN4)cc2)c2ccc(-c3ccc(C(F)(F)F)cc3)cc2c1` [Compound 125b], in data set [1], the “Solubility (ug/mL) pH 4” value worked out at 1.55 ± 0.11 ug/mL and the “Solubility (ug/mL) pH 7.4” value is 0.74 ± 0.06 ug/mL. For `NC(=O)Cc1ccc(-c2cc(C(=O)O)cc(-n3cc(-c4ccc(C(F)(F)F)cc4)nn3)c2)cc1` [Compound 16, 4′-(2-Amino-2-oxoethyl)-5-(4-(4-(trifluoromethyl)phenyl)-1H-1,2,3-triazol-1-yl)-[1,1′-biphenyl]-3-carboxylic acid], the IC50 on hP2Y14R (setting [3]) is 1.29 ± 0.32 µM. For `O=C(O)c1cc(-c2ccc(C3(O)CC4(CNC4)C3)cc2)c2ccc(-c3ccc(C(F)(F)F)cc3)cc2c1` [Compound 408, 4-(4-(6-Hydroxy-2-azaspiro[3.3]heptan-6-yl)phenyl)-7-(4-(trifluoromethyl)phenyl)-2-naphthoic acid], at hP2Y14R (setting [5]), the IC50 stood at 0.0208 ± 0.0056 µM. Still for that read-out and setting: the same measure for `O=C(O)c1cc(-c2ccc(C3CC4(CNC4)C3)cc2)c2ccc(-c3ccc(C(F)(F)F)cc3)cc2c1` [Compound 406, 4-(4-(2-Azaspiro[3.3]heptan-6-yl)phenyl)-7-(4-(trifluoromethyl)phenyl)-2-naphthoic acid]: 0.0466 ± 0.0071 µM.

As to `O=C(O)c1cc(-c2ccc(C3(O)C[C@H]4CNC[C@@H]4C3)cc2)c2ccc(-c3ccc(C(F)(F)F)cc3)cc2c1` (racemic) [Compound 411, rac-4-(4-((3aR,6aR)-5-hydroxyoctahydrocyclopenta[c]pyrrol-5-yl)phenyl)-7-(4-(trifluoromethyl)phenyl)-2-naphthoic acid], the IC50 on hP2Y14R (read-out: IC50) was determined as 0.00948 ± 0.00166 µM. In the case of `O=C(O)c1cc(-c2ccc([C@]3(O)C[C@H]4CC[C@@H]3CN4)cc2)c2ccc(-c3ccc(C(F)(F)F)cc3)cc2c1` [Compound 125a], in data set [1], the “Solubility (ug/mL) pH 4” value is on record as 2.66 ± 0.29 ug/mL and the “Solubility (ug/mL) pH 7.4” value was determined as 2.19 ± 0.10 ug/mL. In addition, the “Log D7.4” value in data set [2] (HPLC-based lipophilicity) is 0.74 ± 0.05. Consider `O=C(O)c1cc(-c2ccc([C@]3(O)C[C@H]4CC[C@@H](C3)N4)cc2)c2ccc(-c3ccc(C(F)(F)F)cc3)cc2c1` [Compound 127, 4-(4-((1R,3r,5S)-3-Hydroxy-8-azabicyclo[3.2.1]octan-3-yl)phenyl)-7-(4-(trifluoromethyl)phenyl)-2-naphthoic acid], for which, in data set [2], the chromatographic logD was 1.16 ± 0.08. Turning to `O=C(O)c1cc(-c2ccc(C3=CC4(CNC4)C3)cc2)c2ccc(-c3ccc(C(F)(F)F)cc3)cc2c1` [Compound 407, 4-(4-(2-Azaspiro[3.3]hept-5-en-6-yl)phenyl)-7-(4-(trifluoromethyl)phenyl)-2-naphthoic acid], the IC50 at hP2Y14R (setting [5]) came to 0.00969 ± 0.00356 µM. As to `NC1(c2ccc(-c3cc(C(=O)O)cc(-n4cc(-c5ccc(C(F)(F)F)cc5)nn4)c3)cc2)CC1` [Compound 22, 4′-(1-Aminocyclopropyl)-5-(4-(4-(trifluoromethyl)phenyl)-1H-1,2,3-triazol-1-yl)-[1,1′-biphenyl]-3-carboxylic acid], on hP2Y14R (setting [3]), the half-inhibitory concentration (IC50) is 14.1 ± 0.9 µM. As to `O=C(O)c1cc(-c2ccc([C@H]3[C@@H]4CNC[C@H]3C4)cc2)c2ccc(-c3ccc(C(F)(F)F)cc3)cc2c1` [Compound 424, 4-(4-((1R,5S,6r)-3-Azabicyclo[3.1.1]heptan-6-yl)phenyl)-7-(4-(trifluoromethyl)phenyl)-2-naphthoic acid], the IC50 at hP2Y14R (setting [5]) is 0.524 ± 0.104 µM. Compound `O=C(O)c1cc(-c2ccc(C3CCNC3)cc2)c2ccc(-c3ccc(C(F)(F)F)cc3)cc2c1` (racemic) [Compound 105, 4-(4-(Pyrrolidin-3-yl)phenyl)-7-(4-(trifluoromethyl)phenyl)-2-naphthoic acid] gave a chromatographic logD in data set [2] of 1.89 ± 0.07. For the compound `O=C(O)c1cc(-c2ccc(CCCCO)cc2)cc(-n2cc(-c3ccc(C(F)(F)F)cc3)nn2)c1` [Compound 21, 4′-(4-Hydroxybutyl)-5-(4-(4-(trifluoromethyl)phenyl)-1H-1,2,3-triazol-1-yl)-[1,1′-biphenyl]-3-carboxylic acid], the IC50 at hP2Y14R (setting [3]) was 9.22 ± 1.22 µM. As to `O=C(O)c1cc(-c2ccc([C@@]3(O)[C@@H]4CNC[C@H]3C4)cc2)c2ccc(-c3ccc(C(F)(F)F)cc3)cc2c1` [Compound 425, 4-(4-((1R,5S,6r)-6-Hydroxy-3-azabicyclo[3.1.1]heptan-6-yl)phenyl)-7-(4-(trifluoromethyl)phenyl)-2-naphthoic acid], at hP2Y14R (setting [5]), the IC50 came out at 0.00592 ± 0.00055 µM. As to `N[C@H]1C[C@@H](CO)C[C@@H]1c1ccc(-c2cc(C(=O)O)cc3cc(-c4ccc(C(F)(F)F)cc4)ccc23)cc1` [Compound 137, 4-(4-((1R,2S,4S)-2-Amino-4-(hydroxymethyl)cyclopentyl)phenyl)-7-(4-(trifluoromethyl)phenyl)-2-naphthoic acid], at hP2Y14R (setting [4]), the IC50 was 0.125 ± 0.045 µM.

Regarding `NC1(c2ccc(-c3cc(C(=O)O)cc(-n4cc(-c5ccc(C(F)(F)F)cc5)nn4)c3)cc2)CCC1` [Compound 25, 4′-(1-Aminocyclobutyl)-5-(4-(4-(trifluoromethyl)phenyl)-1H-1,2,3-triazol-1-yl)-[1,1′-biphenyl]-3-carboxylic acid], the IC50 on hP2Y14R (setting [3]) is 2 ± 0.18 µM. Take `O=C(O)c1cc(-c2ccc(C3=CC4CCC(C3)N4)cc2)c2ccc(-c3ccc(C(F)(F)F)cc3)cc2c1` (centres unmarked) [Compound 128, 4-(4-(8-Azabicyclo[3.2.1]oct-2-en-3-yl)phenyl)-7-(4-(trifluoromethyl)phenyl)-2-naphthoic acid]: in data set [1], the “Solubility (ug/mL) pH 4” value was 2.36 ± 0.01 ug/mL and the “Solubility (ug/mL) pH 7.4” value is recorded as 0.35 ± 0.04 ug/mL. The compound further yielded a chromatographic logD in data set [2] of 2.33 ± 0.04. For `O=C(O)c1cc(-c2ccc(C3(O)C4CCC3CN(Cc3ccccc3)C4)cc2)c2ccc(-c3ccc(C(F)(F)F)cc3)cc2c1` (mixture of isomers) [Compound 130, 4-(4-((1R,5S,8r)-3-Benzyl-8-hydroxy-3-azabicyclo[3.2.1]octan-8-yl)phenyl)-7-(4-(trifluoromethyl)phenyl)-2-naphthoic acid], the chromatographic logD in data set [2] is 3.26 ± 0.01. Consider `O=C(O)c1cc(-c2ccc([C@H]3C[C@H]4C[C@@H]3C(=O)N4)cc2)c2ccc(-c3ccc(C(F)(F)F)cc3)cc2c1` [Compound 119, 4-(4-((1S,4S,5S)-3-Oxo-2-azabicyclo[2.2.1]heptan-5-yl)phenyl)-7-(4-(trifluoromethyl)phenyl)-2-naphthoic acid], for which, at hP2Y14R (Table 2, whole hP2Y14R-CHO cells, 20 nM fluorescent antagonist 3, mean+SEM, n = 3-6, read-out: IC50), the IC50 is 0.101 ± 0.07 µM. For the compound `O=C(O)c1ccc(-c2cc(C(=O)O)cc(-n3cc(-c4ccc(C(F)(F)F)cc4)nn3)c2)cc1` [Compound 13, 5-(4-(4-(Trifluoromethyl)phenyl)-1H-1,2,3-triazol-1-yl)-[1,1′-biphenyl]-3,4′-dicarboxylic acid], the IC50 on hP2Y14R (setting [3]) was 0.632 ± 0.023 µM. Regarding `O=C(O)c1cc(-c2ccc(C3C[C@H]4CNC[C@@H]4C3)cc2)c2ccc(-c3ccc(C(F)(F)F)cc3)cc2c1` (racemic) [Compound 413, rac-4-(4-((3aR,6aR)-Octahydrocyclopenta[c]pyrrol-5-yl)phenyl)-7-(4-(trifluoromethyl)phenyl)-2-naphthoic acid], the IC50 on hP2Y14R (read-out: IC50) is 0.032 ± 0.0112 µM. For `NCCCc1ccc(-c2cc(C(=O)O)cc(-n3cc(-c4ccc(C(F)(F)F)cc4)nn3)c2)cc1` [Compound 18, 4′-(3-Aminopropyl)-5-(4-(4-(trifluoromethyl)phenyl)-1H-1,2,3-triazol-1-yl)-[1,1′-biphenyl]-3-carboxylic acid], the IC50 at hP2Y14R (setting [3]) is 0.292 ± 0.067 µM.
